Some results are limits rather than exact numbers.

T1 sequence (P21589 27-547): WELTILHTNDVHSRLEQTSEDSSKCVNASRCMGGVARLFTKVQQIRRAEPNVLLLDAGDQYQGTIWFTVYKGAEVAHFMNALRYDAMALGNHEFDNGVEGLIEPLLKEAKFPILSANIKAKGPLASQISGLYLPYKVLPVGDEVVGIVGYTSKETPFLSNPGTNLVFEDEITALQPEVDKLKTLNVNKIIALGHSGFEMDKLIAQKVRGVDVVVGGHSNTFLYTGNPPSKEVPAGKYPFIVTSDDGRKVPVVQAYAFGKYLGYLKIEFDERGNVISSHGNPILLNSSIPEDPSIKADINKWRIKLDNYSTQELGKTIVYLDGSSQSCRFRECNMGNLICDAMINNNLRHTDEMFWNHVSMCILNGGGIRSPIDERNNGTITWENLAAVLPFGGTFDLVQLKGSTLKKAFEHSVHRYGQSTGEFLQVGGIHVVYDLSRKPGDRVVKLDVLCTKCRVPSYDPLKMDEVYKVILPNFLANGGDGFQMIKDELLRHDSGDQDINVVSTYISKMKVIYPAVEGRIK

The first test addresses T1, recombinant CD73 (Homo sapiens (Human), UniProt P21589). Description: Assay 2: Inhibition of the CD73 enzyme in vitro (0.05 nM CD73, 1 hour 37° C., Malachite Green). The class given is biochemical. The note with it: 0.05 nM CD73, 50 μM AMP, 1 hour at 37° C. In short, it runs like this:
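Soluble recombinant CD73 reactions ran 1 hour at 37° C. Malachite Green was then added, and absorbance at 630 nm was read after 5 min at room temperature. Inorganic phosphate was quantified from a phosphate standard curve.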
As to `C#C[C@@]1(O)[C@@H](COC(Cc2ccc(-c3ccc[nH]c3=O)cc2)(C(=O)O)C(=O)O)O[C@@H](n2cnc3c(N)nc(Cl)nc32)[C@@H]1O` [Example 12, 2-(((2R,3S,4R,5R)-5-(6-amino-2-chloro-9H-purin-9-yl)-3-ethynyl-3,4-dihydroxytetrahydrofuran-2-yl)methoxy)-2-(4-(2-oxo-1,2-dihydropyridin-3-yl)benzyl)malonic acid], the IC50 came to 0.1 nM. The same measure, in the same setting: to `C#C[C@@]1(O)[C@@H](COC(Cc2ccccc2)(C(=O)O)C(=O)NC)O[C@@H](n2cnc3c(NCc4ccccc4)nc(Cl)nc32)[C@@H]1O` (stereo partly drawn) [Example 107, 2-benzyl-2-(((2R,3S,4R,5R)-5-(6-(benzylamino)-2-chloro-9H-purin-9-yl)-3-ethynyl-3,4-dihydroxytetrahydrofuran-2-yl)methoxy)-3-(methylamino)-3-oxopropanoic acid] belongs 506 nM; to `C#C[C@@]1(O)[C@@H](COC(Cc2ccccc2)(C(=O)O)C(=O)O)O[C@@H](n2cnc3c(NC(C)C)cc(Cl)nc32)[C@@H]1O` [Example 30, 2-benzyl-2-(((2R,3S,4R,5R)-5-(5-chloro-7-(isopropylamino)-3H-imidazo[4,5-b]pyridin-3-yl)-3-ethynyl-3,4-dihydroxytetrahydrofuran-2-yl)methoxy)malonic acid], 5 nM. In the case of `C#C[C@@]1(O)[C@@H](COC(Cc2ccccc2)(C(=O)O)C(=O)O)O[C@@H](n2cnc3c(NO)nc(Cl)nc32)[C@@H]1O` [Example 168, 2-benzyl-2-(((2R,3S,4R,5R)-5-(2-chloro-6-(hydroxyamino)-9H-purin-9-yl)-3-ethynyl-3,4-dihydroxytetrahydrofuran-2-yl)methoxy)malonic acid], the IC50 turned out to be 14 nM. The same measure, in the same setting: for `C#C[C@@]1(O)[C@@H](COC(Cc2ccccc2)(C(=O)O)C(=O)O)O[C@@H](n2cnc3c(N(C)C4CCC4)nc(Cl)nc32)[C@@H]1O` [Example 81, 2-benzyl-2-(((2R,3S,4R,5R)-5-(2-chloro-6-(cyclobutyl(methyl)amino)-9H-purin-9-yl)-3-ethynyl-3,4-dihydroxytetrahydrofuran-2-yl)methoxy)malonic acid] the value was 0.4 nM; for `C#C[C@@]1(O)[C@@H](COC(Cc2ccc(-c3ccccc3)c(C(=O)O)c2)(C(=O)O)C(=O)O)O[C@@H](n2cnc3c(N)nc(Cl)nc32)[C@@H]1O` [Example 13, 2-(((2R,3S,4R,5R)-5-(6-amino-2-chloro-9H-purin-9-yl)-3-ethynyl-3,4-dihydroxytetrahydrofuran-2-yl)methoxy)-2-((2-carboxy-[1,1′-biphenyl]-4-yl)methyl)malonic acid], 0.3 nM. Still for that read-out and setting: to `C#C[C@@]1(O)[C@@H](COC(Cc2ccc(N3CCCNC3=O)cc2)(C(=O)O)C(=O)O)O[C@@H](n2nc(C)c3ccc(Cl)nc32)[C@@H]1O` [Example 131, 2-(((2R,3S,4R,5R)-5-(6-chloro-3-methyl-1H-pyrazolo[3,4-b]pyridin-1-yl)-3-ethynyl-3,4-dihydroxytetrahydrofuran-2-yl)methoxy)-2-(4-(2-oxotetrahydropyrimidin-1(2H)-yl)benzyl)malonic acid] belongs over 100 nM; to `C#C[C@@]1(O)[C@@H](COC(Cc2ccccc2)(C(=O)O)C(=O)O)O[C@@H](n2cnc3c(N4CC(O)C4)nc(Cl)nc32)[C@@H]1O` [Example 41, 2-benzyl-2-(((2R,3S,4R,5R)-5-(2-chloro-6-(3-hydroxyazetidin-1-yl)-9H-purin-9-yl)-3-ethynyl-3,4-dihydroxytetrahydrofuran-2-yl)methoxy)malonic acid], 0.6 nM.

In the case of `C#C[C@@]1(O)[C@@H](COC(Cc2ccccc2)(C(=O)O)C(=O)O)O[C@@H](n2cnc3c(NCC)nc(Cl)nc32)[C@@H]1O` [Example 73, 2-benzyl-2-(((2R,3S,4R,5R)-5-(2-chloro-6-(ethylamino)-9H-purin-9-yl)-3-ethynyl-3,4-dihydroxytetrahydrofuran-2-yl)methoxy)malonic acid], the IC50 was 1 nM. Same read-out and setting: to `C#C[C@@]1(O)[C@@H](COC(Cc2ccccc2)(C(=O)O)C(=O)O)O[C@@H](n2cnc3c(N)nc(C(C)=O)nc32)[C@@H]1O` [Example 127, 2-(((2R,3S,4R,5R)-5-(2-acetyl-6-amino-9H-purin-9-yl)-3-ethynyl-3,4-dihydroxytetrahydrofuran-2-yl)methoxy)-2-benzylmalonic acid] belongs 170 nM; to `C#C[C@@]1(O)[C@@H](COC(Cc2ccncc2)(C(=O)O)C(=O)O)O[C@@H](n2cnc3c(N)nc(Cl)nc32)[C@@H]1O` [Compound 7, 2-(((2R,3S,4R,5R)-5-(6-amino-2-chloro-9H-purin-9-yl)-3-ethynyl-3,4-dihydroxytetrahydrofuran-2-yl)methoxy)-2-(pyridin-4-ylmethyl)malonic acid], 8 nM; to `C#C[C@@]1(O)[C@@H](COC(Cc2ccccc2)(C(=O)O)C(=O)O)O[C@@H](n2cnc3c(N4CC[C@H](CO)C4)nc(Cl)nc32)[C@@H]1O` [Example 101, 2-benzyl-2-(((2R,3S,4R,5R)-5-(2-chloro-6-((S)-3-(hydroxymethyl)-pyrrolidin-1-yl)-9H-purin-9-yl)-3-ethynyl-3,4-dihydroxytetrahydrofuran-2-yl)methoxy)malonic acid], 1 nM. The same measure, in the same setting: for `C#C[C@@]1(O)[C@@H](COC(Cc2ccccc2)(C(=O)O)C(=O)O)O[C@@H](n2cnc3c(N4CC(C)(O)C4)nc(Cl)nc32)[C@@H]1O` [Example 47, 2-benzyl-2-(((2R,3S,4R,5R)-5-(2-chloro-6-(3-hydroxy-3-methylazetidin-1-yl)-9H-purin-9-yl)-3-ethynyl-3,4-dihydroxytetrahydrofuran-2-yl)methoxy)malonic acid] the value was 2 nM. Turning to `C#C[C@@]1(O)[C@@H](CO[C@](Cc2ccccc2)(C(=O)O)c2cscn2)O[C@@H](n2cnc3c(NC(C)C)nc(Cl)nc32)[C@@H]1O` (single isomer, unassigned) [Example 170], the IC50 was found to be 8 nM.

For the next test, the target named is T1, recombinant CD73. Description: Assay 1: Inhibition of the CD73 enzyme in vitro (0.5 nM CD73, 30 min room temperature, Malachite Green). The class given is biochemical. The note with it: 0.5 nM CD73, 30 minutes at room temperature. As for the experimental part: For measurements of soluble CD73 enzyme activity, recombinant CD73 was obtained from R&D Systems, Cat. No. 5795-EN-010. […] Reactions were allowed to proceed for 30 minutes at room temperature before the addition of 100 μL Malachite Green (Cell Signaling Technology, Cat. No. 12776). After 5 minutes at room temperature, absorbance at 630 nm was determined on a microplate spectrophotometer. The concentration of inorganic phosphate was determined using a phosphate standard curve.
For the compound `C#C[C@@]1(O)[C@@H](COC(C(=O)O)C(=O)O)O[C@@H](n2cnc3c(N)nc(Cl)nc32)[C@@H]1O` [Example 26, 2-(((2R,3S,4R,5R)-5-(6-amino-2-chloro-9H-purin-9-yl)-3-ethynyl-3,4-dihydroxytetrahydrofuran-2-yl)methoxy)malonic acid], the IC50 amounted to 58 nM. The same measure, in the same setting: for `C[C@@]1(O)[C@@H](COC(Cc2ccc(-c3ccccc3C(=O)O)cc2)(C(=O)O)c2cscn2)O[C@@H](n2cnc3c(N)nc(Cl)nc32)[C@@H]1O` (stereo partly drawn) [Example 200, 4′-(2-(((2R,3S,4R,5R)-5-(6-amino-2-chloro-9H-purin-9-yl)-3,4-dihydroxy-3-methyltetrahydrofuran-2-yl)methoxy)-2-carboxy-2-(thiazol-4-yl)ethyl)-[1,1′-biphenyl]-2-carboxylic acid] the value was 6090 nM; for `C#C[C@@]1(O)[C@@H](COC(C(=O)OCC)P(=O)(O)O)O[C@@H](n2cnc3c(N4CCOCC4)nc(Cl)nc32)[C@@H]1O` (stereo partly drawn) [Example 124, (1-(((2R,3S,4R,5R)-5-(2-chloro-6-morpholino-9H-purin-9-yl)-3-ethynyl-3,4-dihydroxytetrahydrofuran-2-yl)methoxy)-2-ethoxy-2-oxoethyl)phosphonic acid], 27 nM.

Values taken from US11078228B2, “Ectonucleotidase inhibitors and methods of use thereof” (Calithera Biosciences, Inc., priority 2018, dated 2021).
